Test results taken from the NIST ThermoML archive (doi:10.1016/j.jct.2016.03.034).

Assay: xn = mol fraction of the nth substance listed
Settings: 100 kPa, Liquid; for viscosity: Capillary tube (Ostwald / Ubbelohde) method; for mass density: Vibrating tube method

O=C1CCCO1 [γ-butyrolactone] + CCCCCCCCn1cc[n+](C)c1.O=S(=O)([N-]S(=O)(=O)C(F)(F)F)C(F)(F)F
Settings | mass density [kg/m3] | viscosity [mPa·s]
293.15 K, x2 = 0 | 1129.49 | 1.86
293.15 K, x2 = 0.0486 | 1168.04 | 2.77
293.15 K, x2 = 0.1001 | 1197.81 | 4
293.15 K, x2 = 0.1497 | 1219.5 | 5.49
293.15 K, x2 = 0.2006 | 1237.06 | 7.48
293.15 K, x2 = 0.3037 | 1262.89 | 12.83
293.15 K, x2 = 0.394 | 1278.72 | –
293.15 K, x2 = 0.4952 | 1292.01 | 29.29
293.15 K, x2 = 0.586 | 1300.99 | –
293.15 K, x2 = 0.7007 | 1309.94 | 54.57
293.15 K, x2 = 0.8081 | 1316.42 | –
293.15 K, x2 = 0.9003 | 1321 | 87.86
298.15 K, x2 = 0 | 1124.59 | 1.71
298.15 K, x2 = 0.0486 | 1163.25 | 2.53
298.15 K, x2 = 0.1001 | 1193.1 | 3.64
298.15 K, x2 = 0.1497 | 1214.96 | 4.9
298.15 K, x2 = 0.2006 | 1232.47 | 6.56
298.15 K, x2 = 0.3037 | 1258.37 | 10.89
298.15 K, x2 = 0.394 | 1274.26 | –
298.15 K, x2 = 0.4952 | 1287.58 | 23.62
298.15 K, x2 = 0.586 | 1296.61 | –
298.15 K, x2 = 0.7007 | 1305.54 | 42.86
298.15 K, x2 = 0.8081 | 1312.07 | –
298.15 K, x2 = 0.9003 | 1316.57 | 68
303.15 K, x2 = 0 | 1119.68 | 1.58
303.15 K, x2 = 0.0486 | 1158.47 | 2.31
303.15 K, x2 = 0.1001 | 1188.35 | 3.26
303.15 K, x2 = 0.1497 | 1210.25 | 4.41
303.15 K, x2 = 0.2006 | 1227.82 | 5.8
303.15 K, x2 = 0.3037 | 1253.81 | 9.44
303.15 K, x2 = 0.394 | 1269.73 | –
303.15 K, x2 = 0.4952 | 1283.09 | 19.3
303.15 K, x2 = 0.586 | 1292.14 | –
303.15 K, x2 = 0.7007 | 1301.1 | 34.7
303.15 K, x2 = 0.8081 | 1307.63 | –
303.15 K, x2 = 0.9003 | 1312.16 | 53.86
308.15 K, x2 = 0 | 1114.78 | 1.47
308.15 K, x2 = 0.0486 | 1153.69 | 2.12
308.15 K, x2 = 0.1001 | 1183.64 | 2.96
308.15 K, x2 = 0.1497 | 1205.57 | 3.97
308.15 K, x2 = 0.2006 | 1223.18 | 5.15
308.15 K, x2 = 0.3037 | 1249.22 | 8.26
308.15 K, x2 = 0.394 | 1265.2 | –
308.15 K, x2 = 0.4952 | 1278.6 | 16.57
308.15 K, x2 = 0.586 | 1287.67 | –
308.15 K, x2 = 0.7007 | 1296.66 | 28.87
308.15 K, x2 = 0.8081 | 1303.22 | –
308.15 K, x2 = 0.9003 | 1307.76 | 43.53
313.15 K, x2 = 0 | 1109.87 | 1.37
313.15 K, x2 = 0.0486 | 1148.89 | 1.96
313.15 K, x2 = 0.1001 | 1178.93 | 2.72
313.15 K, x2 = 0.1497 | 1200.87 | 3.61
313.15 K, x2 = 0.2006 | 1218.54 | 4.62
313.15 K, x2 = 0.3037 | 1244.66 | 7.27
313.15 K, x2 = 0.394 | 1260.67 | –
313.15 K, x2 = 0.4952 | 1274.11 | 13.95
313.15 K, x2 = 0.586 | 1283.2 | –
313.15 K, x2 = 0.7007 | 1292.22 | 23.79
313.15 K, x2 = 0.8081 | 1298.8 | –
313.15 K, x2 = 0.9003 | 1303.36 | 35.68
318.15 K, x2 = 0 | 1104.96 | 1.28
318.15 K, x2 = 0.0486 | 1144.1 | 1.82
318.15 K, x2 = 0.1001 | 1174.21 | 2.49
318.15 K, x2 = 0.1497 | 1196.2 | 3.23
318.15 K, x2 = 0.2006 | 1213.93 | 4.17
318.15 K, x2 = 0.3037 | 1240.09 | 6.47
318.15 K, x2 = 0.394 | 1256.15 | –
318.15 K, x2 = 0.4952 | 1269.61 | 12
318.15 K, x2 = 0.586 | 1278.74 | –
318.15 K, x2 = 0.7007 | 1287.82 | 19.85
318.15 K, x2 = 0.8081 | 1294.4 | –
318.15 K, x2 = 0.9003 | 1298.97 | 29.79
323.15 K, x2 = 0 | 1100.05 | 1.2
323.15 K, x2 = 0.0486 | 1139.34 | 1.69
323.15 K, x2 = 0.1001 | 1169.52 | 2.29
323.15 K, x2 = 0.1497 | 1191.56 | 2.95
323.15 K, x2 = 0.2006 | 1209.34 | 3.78
323.15 K, x2 = 0.3037 | 1235.56 | 5.8
323.15 K, x2 = 0.394 | 1251.63 | –
323.15 K, x2 = 0.4952 | 1265.15 | 10.5
323.15 K, x2 = 0.586 | 1274.3 | –
323.15 K, x2 = 0.7007 | 1283.4 | 16.69
323.15 K, x2 = 0.8081 | 1290.01 | –
323.15 K, x2 = 0.9003 | 1294.6 | 25.43

O=C1CCCO1 [γ-butyrolactone] + CCCCCC[n+]1ccn(C)c1.O=S(=O)([N-]S(=O)(=O)C(F)(F)F)C(F)(F)F
Settings | mass density [kg/m3] | viscosity [mPa·s]
293.15 K, x2 = 0 | 1129.49 | 1.86
293.15 K, x2 = 0.0507 | 1176 | 2.63
293.15 K, x2 = 0.0999 | 1209.89 | 3.68
293.15 K, x2 = 0.1544 | 1238.99 | 5.32
293.15 K, x2 = 0.1999 | 1258.54 | 6.49
293.15 K, x2 = 0.3004 | 1291.11 | 10.57
293.15 K, x2 = 0.404 | 1314.91 | –
293.15 K, x2 = 0.5044 | 1332.2 | 23.96
293.15 K, x2 = 0.596 | 1344.4 | –
293.15 K, x2 = 0.7027 | 1355.85 | 44.32
293.15 K, x2 = 0.8182 | 1365.51 | –
293.15 K, x2 = 0.8924 | 1370.62 | 70.24
298.15 K, x2 = 0 | 1124.59 | 1.71
298.15 K, x2 = 0.0507 | 1171.09 | 2.43
298.15 K, x2 = 0.0999 | 1204.99 | 3.32
298.15 K, x2 = 0.1544 | 1234.06 | 4.67
298.15 K, x2 = 0.1999 | 1253.61 | 5.73
298.15 K, x2 = 0.3004 | 1286.27 | 9.16
298.15 K, x2 = 0.404 | 1310.08 | –
298.15 K, x2 = 0.5044 | 1327.28 | 19.96
298.15 K, x2 = 0.596 | 1339.47 | –
298.15 K, x2 = 0.7027 | 1350.79 | 35.8
298.15 K, x2 = 0.8182 | 1360.52 | –
298.15 K, x2 = 0.8924 | 1365.62 | 55.4
303.15 K, x2 = 0 | 1119.68 | 1.58
303.15 K, x2 = 0.0507 | 1166.32 | 2.18
303.15 K, x2 = 0.0999 | 1200.4 | 3
303.15 K, x2 = 0.1544 | 1229.53 | 4.08
303.15 K, x2 = 0.1999 | 1249.21 | 5.07
303.15 K, x2 = 0.3004 | 1281.91 | 7.91
303.15 K, x2 = 0.404 | 1305.79 | –
303.15 K, x2 = 0.5044 | 1323.05 | 16.88
303.15 K, x2 = 0.596 | 1335.25 | –
303.15 K, x2 = 0.7027 | 1346.64 | 29.15
303.15 K, x2 = 0.8182 | 1356.39 | –
303.15 K, x2 = 0.8924 | 1361.5 | 44.29
308.15 K, x2 = 0 | 1114.78 | 1.47
308.15 K, x2 = 0.0507 | 1161.53 | 1.97
308.15 K, x2 = 0.0999 | 1195.65 | 2.74
308.15 K, x2 = 0.1544 | 1224.8 | 3.69
308.15 K, x2 = 0.1999 | 1244.56 | 4.55
308.15 K, x2 = 0.3004 | 1277.26 | 7
308.15 K, x2 = 0.404 | 1301.16 | –
308.15 K, x2 = 0.5044 | 1318.46 | 14.47
308.15 K, x2 = 0.596 | 1330.67 | –
308.15 K, x2 = 0.7027 | 1342.09 | 25.57
308.15 K, x2 = 0.8182 | 1351.83 | –
308.15 K, x2 = 0.8924 | 1356.94 | 36.71
313.15 K, x2 = 0 | 1109.87 | 1.37
313.15 K, x2 = 0.0507 | 1156.54 | 1.84
313.15 K, x2 = 0.0999 | 1190.58 | 2.52
313.15 K, x2 = 0.1544 | 1219.69 | 3.34
313.15 K, x2 = 0.1999 | 1239.41 | 4.11
313.15 K, x2 = 0.3004 | 1272 | 6.23
313.15 K, x2 = 0.404 | 1295.78 | –
313.15 K, x2 = 0.5044 | 1313.05 | 12.29
313.15 K, x2 = 0.596 | 1325.23 | –
313.15 K, x2 = 0.7027 | 1336.62 | 20.49
313.15 K, x2 = 0.8182 | 1346.3 | –
313.15 K, x2 = 0.8924 | 1351.37 | 30.2
318.15 K, x2 = 0 | 1104.96 | 1.28
318.15 K, x2 = 0.0507 | 1151.65 | 1.7
318.15 K, x2 = 0.0999 | 1185.71 | 2.31
318.15 K, x2 = 0.1544 | 1214.89 | 3.03
318.15 K, x2 = 0.1999 | 1234.59 | 3.7
318.15 K, x2 = 0.3004 | 1267.16 | 5.72
318.15 K, x2 = 0.404 | 1290.94 | –
318.15 K, x2 = 0.5044 | 1308.19 | 10.74
318.15 K, x2 = 0.596 | 1320.36 | –
318.15 K, x2 = 0.7027 | 1331.75 | 17.5
318.15 K, x2 = 0.8182 | 1341.42 | –
318.15 K, x2 = 0.8924 | 1346.5 | 25.41
323.15 K, x2 = 0 | 1100.05 | 1.2
323.15 K, x2 = 0.0507 | 1147.03 | 1.58
323.15 K, x2 = 0.0999 | 1181.36 | 2.14
323.15 K, x2 = 0.1544 | 1210.78 | 2.69
323.15 K, x2 = 0.1999 | 1230.51 | 3.38
323.15 K, x2 = 0.3004 | 1263.32 | 5.21
323.15 K, x2 = 0.404 | 1287.31 | –
323.15 K, x2 = 0.5044 | 1304.67 | 9.36
323.15 K, x2 = 0.596 | 1316.95 | –
323.15 K, x2 = 0.7027 | 1328.43 | 15
323.15 K, x2 = 0.8182 | 1338.19 | –
323.15 K, x2 = 0.8924 | 1343.3 | 21.39
